Laboratory results reported in US5348952A, “β-lactam derivatives of the cephem sulphone type” (Farmitalia Carlo Erba S.R.L., priority 1989, dated 1994).
pKi: −log10 of the molar value. Read-outs that look alike come from different tables or passages of the source.

Key:
[1] = target: T1, human leukocyte elastase (HLE) (Homo sapiens, UniProt P08246); test: Inhibition of HLE activity, kinetic parameters (Protocol B); format: biochemical; settings: for pKi: steady state, read-out: "Potency" K1^ (apparent dissociation constant of the HLE-inhibitor complex at steady state, Ki^ss)
T1 construct: purchased Calbiochem Lot 702038
T1 sequence (P08246 30-267): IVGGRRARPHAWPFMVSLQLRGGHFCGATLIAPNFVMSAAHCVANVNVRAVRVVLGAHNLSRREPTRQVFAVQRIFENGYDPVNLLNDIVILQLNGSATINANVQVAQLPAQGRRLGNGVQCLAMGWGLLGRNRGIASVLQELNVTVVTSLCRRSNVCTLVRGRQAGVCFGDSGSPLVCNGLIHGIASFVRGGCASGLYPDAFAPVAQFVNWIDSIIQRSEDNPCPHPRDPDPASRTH
Protocol: Protocol B--Inhibition of HLE activity (Calbiochem, Lot 702038) was determined at 37° C., 0.027M pH 7.4 phosphate buffer, 1% DMSO, 1% MeCN, NaCl (I=15), by monitoring the release of 7-amino-4-methylcoumarin (fluorescence detection) from N-methoxysuccinyl-alanyl-prolyl-valyl-7-amido-4-methylcoumarin as substrate, according to the equations: [formula] wherein: [P], [I], [S]=product, inhibitor and substrate concentration
km =Michaelis constant for the enzyme-substrate pair (independently determined under the same experimental conditions).

[2] = target: porcine pancreatic elastase, PPE (Sus scrofa, UniProt P00772); test: Inhibition of PPE activity (Protocol A); format: biochemical; settings: 30° C., 0.05M pH 7.4 phosphate buffer, 2.5% MeCN; 50% reduction of enzyme activity 6.4 minutes after zero time; read-out: PPE-inhibitory activity IC50 (converted)
Protocol: To illustrate this point, Table 1 reports the results of our preliminary screening test (carried out with porcine pancreatic elastase, PPE), wherein four representative compounds of the present invention (formula I) are compared with the corresponding 2-unsubstitued compounds of formula II (References A and B).
Protocol A--Inhibition of PPE activity was determined at 30° C., 0.05M pH 7.4 phosphate buffer, 2.5% MeCN, by monitoring the release of p-nitroaniline (410 nm, Carlo Erba Strumentazione Spectracomp spectrophotometer) from the substrate (N-t-Boc-alanyl-alanyl-prolyl-alanine-p-nitroanilide, 0.2 mM initial concentration).

[3] = 37° C., 0.027M pH 7.4 phosphate buffer, 1% DMSO, 1% MeCN, read-out: "Efficacy" Kon (rate of formation of the HLE-inhibitor complex)
[4] = 37° C., 0.027M pH 7.4 phosphate buffer, 1% DMSO, 1% MeCN

porcine pancreatic elastase, PPE, sequence (P00772 27-266): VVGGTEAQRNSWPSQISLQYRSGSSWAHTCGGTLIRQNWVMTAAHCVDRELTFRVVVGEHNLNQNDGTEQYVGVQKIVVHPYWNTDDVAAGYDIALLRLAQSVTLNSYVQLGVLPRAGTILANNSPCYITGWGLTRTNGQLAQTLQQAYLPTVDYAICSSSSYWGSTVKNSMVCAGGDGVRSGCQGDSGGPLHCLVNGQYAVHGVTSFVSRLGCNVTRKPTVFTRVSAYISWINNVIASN

Row | IC50 [2] [nM] | kon [1, 3] [M⁻¹ s⁻¹] | pKi [1, 4] | Structure (SMILES) | kon ([1]; pH 7.4, read-out: "Efficacy" Kon (rate of formation of the HLE-inhibitor complex)) [M⁻¹ s⁻¹]
1 |  |  |  | CO[C@H]1C(=O)N2C(C(=O)N3CCCC3)=C(CSc3nc(=O)c(O)nn3C)CS(=O)(=O)[C@H]12 [Merck L-659,286, reference compound] | 1500
2 | 6540 |  |  | CC1=C(C(=O)C(C)(C)C)N2C(=O)[C@H](Cl)[C@H]2S(=O)(=O)C1 [Reference A, reference compound] | 
3 | 6640 |  |  | CO[C@H]1C(=O)N2C(C(=O)C(C)(C)C)=C(C)CS(=O)(=O)[C@H]12 [Reference B, reference compound] | 
4 | 4110 |  |  | CC1=C(C(=O)OC(C)(C)C)N2C(=O)[C@H](Cl)[C@H]2S(=O)(=O)C1Sc1nc2ccccc2s1 (some centres unmarked) [Reference C, reference compound] | 
5 | 12800 | 500 | 7.42 | COC(=O)C1=C(C)C(Sc2nnnn2C)S(=O)(=O)[C@@H]2[C@@H](OC)C(=O)N12 (some centres unmarked) [Reference D, reference compound] | 
6 | 96.3 | 90000 | 8.08 | CO[C@H]1C(=O)N2C(C(=O)C(C)(C)C)=C(C)C(Sc3nnnn3C)S(=O)(=O)[C@H]12 (stereo partly drawn) [n° 1, 4-tert-Butylcarbonyl-7α-methoxy-3-methyl-2-(1-methyl-1,2,3,4-tetrazol-5-yl)thio-3-cephem 1,1-dioxide] | 
7 | 71.5 |  |  | CC1=C(C(=O)C(C)(C)C)N2C(=O)[C@H](Cl)[C@H]2S(=O)(=O)C1Sc1nc(=O)c(OC(c2ccccc2)c2ccccc2)nn1C (stereo partly drawn) [n° 4, 4-Tert-butylcarbonyl-7α-chloro-3-methyl-2-(2-methyl-5-oxo-6-benzhydryloxy-2,5-dihydro 1,2,4-triazin-3-yl-)thio-3-cephem 1,1-dioxide] | 
8 | 75.6 |  |  | CC1=C(C(=O)C(C)(C)C)N2C(=O)[C@H](Cl)[C@H]2S(=O)(=O)C1Sc1nc(=O)c(O)nn1C (stereo partly drawn) [n° 5, 4-tert-butylcarbonyl-7α-chloro-3-methyl-2-(2-methyl-5-oxo-6-hydroxy-2,3-dihydro-1,2,4-triazin-3-yl)-thio-3-cephem 1,1-dioxide] | 
9 |  | 11000 | 7.74 | CO[C@H]1C(=O)N2C(C(=O)C(C)(C)C)=C(C)C(Sc3nnnn3CCCC(=O)O)S(=O)(=O)[C@H]12 (stereo partly drawn) [n° 7, 4-tert-Butylcarbonyl-7α-methoxy-3-methyl-2-[1-(3-carboxy-1-propyl)-1,2,3,4-tetrazol-5-yl]thio-3-cephem 1,1-dioxide] | 
10 | 65.4 | 25000 | 7.59 | CO[C@H]1C(=O)N2C(C(=O)C(C)(C)C)=C(C)C(Sc3nc(=O)c(O)nn3C)S(=O)(=O)[C@H]12 (stereo partly drawn) [n° 9, 4-tert-Butylcarbonyl-7α-methoxy-3-methyl-2-(2-methyl-5-oxo-6-hydroxy-2,5-dihydro-1,2,4-triazin-3-yl)thio-3-cephem 1,1-dioxide] | 
